# Laboratory results taken from PubChem BioAssay AID1963839 (Molecular Pharmacology Branch, DTP, NCI, 2024).
# Tested on: 817829-284-R-J1-PDC complex spheroid viability
# Assay: Anticancer human tumor 817829-284-R-J1-PDC patient-derived colon adenocarcinoma cell line growth inhibition [POLQ]
# Settings: for IC50: curve of first compound; for viability, T/C: stronger effect = lower value
# Method: Multicellular complex tumor spheroid response to Polymerase (POL) inhibitors (novobiocin, ART-558, RP6685) in combination with a variety of drugs and investigational agents in selected tumor cell lines
# The POL inhibitors (novobiocin, ART-558, and RP6685) were evaluated both individually and in combination with standard of care and investigational anticancer small molecules within a complex spheroid model of solid tumors. . Complex spheroids include a stromal component modeled by human endothelial cells (HUVEC) and fibroblasts modeled by human mesenchymal stem cells (MSCs). The concentration ranges selected for each drug and investigational agent were based upon clinically achievable concentrations if the clinical Cmax of the agent was known.
# Compounds. The drugs and investigational agents: novobiocin (NSC847541), ART-558 (NSC835418), RP-6685 (NSC848927), peposertib (NSC802822), ceralasertib (NSC780249), elimusertib (NSC800525), camonsertib (NSC841442), AZD-1390 (NSC803789), olaparib (NSC753686), talazoparib (NSC767125), rucaparib (NSC756644), sotorasib (NSC818433), MRTX-1133 (NSC836407), SN-38 (NSC673596), topotecan (NSC609699), epotoside (NSC141540), doxorubicin (NSC123127), gemcitabine (NSC613327), 5-fluorouracil (NSC19893), paclitaxel (NSC125973), vemurafenib (NSC761431), MSA-2 (NSC828583), SN-011 (NSC837082), adavosertib (NSC754352), prexasertib (NSC758257), carboplatin (NSC241240) and oxaliplatin (NSC266046), were obtained from the National Cancer Institute (NCI) Developmental Therapeutics Program Chemical Repository (21). The FDA-approved anticancer drug set is available from the Developmental Therapeutics Program at https://dtp.cancer.gov/organization/dscb/obtaining/. […] The stock solutions were prepared in dimethyl sulfoxide (DMSO, Sigma-Aldrich, St. Louis, MO, cat. D2650), except for the platinum compounds which were prepared in saline (Quality Biological, Gaithersburg, MD, cat. 114-055-101), at 800-fold the tested concentration and stored at -70 degrees C prior to their use. All drugs and investigational agents were tested over a range starting from a high concentration at or near the clinical Cmax and decreasing in half-log increments. If the clinical Cmax for an agent had not been determined, the highest concentration tested was 10 microM, except for SN-38, which was tested at a high concentration of 1 microM.
# Cell Culture. All cells were maintained in an incubator at 37 degrees C and 5% CO2 with 95% humidity. The PDC lines were cultured according to standard operating procedures established by the NCI PDMR (https://pdmr.cancer.gov). Table 3 of the manuscript, lists the cell lines along with the number of the three cell types plated to form the mct-spheroids and media for tumor cell growth. After thawing, all PDC lines, except 997537-175-T-J1-PDC and 415267-285-R-J2-PDC, were cultured in Matrigel-coated flasks prepared with a working solution of 1X Ham's F-12 nutrient mix, without supplementation (Thermo Fisher Scientific, cat. 11765054), 100 U/mL penicillin-streptomycin (Thermo Fisher Scientific, cat. 15140122), and 2.5% Matrigel (Corning Inc., Corning, NY, cat. 354248) for the first three passages. The two PDC lines 997537-175-T-J1-PDC and 415267-285-R-J2-PDC were cultured on uncoated flasks. The 857933-349-R-J2-PDC line was cultured in 6C/Colon 1B media containing advanced DMEM/F-12 (Thermo Fisher Scientific, cat. 12634028), 10 mM HEPES (Thermo Fisher Scientific, cat. 15630080), 1X GlutaMAX supplement (Thermo Fisher Scientific, cat. 35050061), 0.1 mg/mL primocin (InvivoGen, San Diego, CA, cat. ant-pm-2), 10% defined fetal bovine serum, heat inactivated (HyClone Laboratories Inc., Logan, UT, cat. SH30070.03HI), 50% L-WRN conditioned media (ATCC, cat. CRL-3276), 1.25 mM N-Acetyl-L-cysteine (Sigma-Aldrich, cat. A9165), 10 mM nicotinamide (Sigma-Aldrich, cat. N0636), 1X B-27 supplement (Thermo Fisher Scientific, cat. 17504044), 1X N-2 supplement (Thermo Fisher Scientific, cat. […]
# [1] = second compound 0.0316 µM, first compound 0.0316 µM
# [2] = second compound 0.0316 µM, first compound 0.1 µM
# [3] = second compound 0.0316 µM, first compound 0.316 µM
# [4] = second compound 0.0316 µM, first compound 1 µM
# [5] = second compound 0.1 µM, first compound 0.0316 µM
# [6] = second compound 0.1 µM, first compound 0.1 µM
# [7] = second compound 0.1 µM, first compound 0.316 µM
# [8] = second compound 0.1 µM, first compound 1 µM
# [9] = second compound 0.316 µM, first compound 0.0316 µM
# [10] = second compound 0.316 µM, first compound 0.1 µM
# [11] = second compound 0.316 µM, first compound 0.316 µM
# [12] = second compound 0.316 µM, first compound 1 µM
# [13] = second compound 1 µM, first compound 0.0316 µM
# [14] = second compound 1 µM, first compound 0.1 µM
# [15] = second compound 1 µM, first compound 0.316 µM
# [16] = second compound 1 µM, first compound 1 µM
# [17] = second compound 3.16 µM, first compound 0.0316 µM
# [18] = second compound 3.16 µM, first compound 0.1 µM
# [19] = second compound 3.16 µM, first compound 0.316 µM
# [20] = second compound 3.16 µM, first compound 1 µM
# [21] = second compound 10 µM, first compound 0.0316 µM
# [22] = second compound 10 µM, first compound 0.1 µM
# [23] = second compound 10 µM, first compound 0.316 µM
# [24] = second compound 10 µM, first compound 1 µM
# 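Note: spheroids exposed to compounds for 7 days.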
# 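Throughout, for viability, T/C: 100% = DMSO vehicle-treated spheroids.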
compound,measurement,setting,value
C=CCn1c(=O)c2cnc(Nc3ccc(N4CCN(C)CC4)cc3)nc2n1-c1cccc(C(C)(C)O)n1 + Nc1ccc(C#CCN(C(=O)Cc2ncc(C(F)(F)F)cc2C(F)(F)F)c2ccc(F)cc2)nn1,IC50,second compound 0.0316 µM,258 nM
same,IC50,second compound 0.1 µM,219 nM
same,IC50,second compound 0.316 µM,214 nM
same,IC50,second compound 1 µM,259 nM
same,IC50,second compound 3.16 µM,198 nM
same,IC50,second compound 10 µM,236 nM
same,"viability, T/C","second compound 0.0316 µM, first compound 0.00316 µM",90.9%
same,"viability, T/C","second compound 0.0316 µM, first compound 0.01 µM",118%
same,"viability, T/C",[1],97.2%
same,"viability, T/C",[2],72.6%
same,"viability, T/C",[3],47%
same,"viability, T/C",[4],5.79%
same,"viability, T/C","second compound 0.1 µM, first compound 0.00316 µM",103%
same,"viability, T/C","second compound 0.1 µM, first compound 0.01 µM",103%
same,"viability, T/C",[5],83.6%
same,"viability, T/C",[6],79.9%
same,"viability, T/C",[7],36%
same,"viability, T/C",[8],6.74%
same,"viability, T/C","second compound 0.316 µM, first compound 0.00316 µM",90.6%
same,"viability, T/C","second compound 0.316 µM, first compound 0.01 µM",113%
same,"viability, T/C",[9],87.8%
same,"viability, T/C",[10],78%
same,"viability, T/C",[11],36.1%
same,"viability, T/C",[12],5.29%
same,"viability, T/C","second compound 1 µM, first compound 0.00316 µM",110%
same,"viability, T/C","second compound 1 µM, first compound 0.01 µM",115%
same,"viability, T/C",[13],85.5%
same,"viability, T/C",[14],82.4%
same,"viability, T/C",[15],42.2%
same,"viability, T/C",[16],5.43%
same,"viability, T/C","second compound 3.16 µM, first compound 0.00316 µM",93.7%
same,"viability, T/C","second compound 3.16 µM, first compound 0.01 µM",82.2%
same,"viability, T/C",[17],100%
same,"viability, T/C",[18],75.2%
same,"viability, T/C",[19],31.8%
same,"viability, T/C",[20],5.58%
same,"viability, T/C","second compound 10 µM, first compound 0.00316 µM",90.7%
same,"viability, T/C","second compound 10 µM, first compound 0.01 µM",105%
same,"viability, T/C",[21],89.7%
same,"viability, T/C",[22],80.7%
same,"viability, T/C",[23],39.7%
same,"viability, T/C",[24],5.43%
O=c1[nH]cc(F)c(=O)[nH]1 + Nc1ccc(C#CCN(C(=O)Cc2ncc(C(F)(F)F)cc2C(F)(F)F)c2ccc(F)cc2)nn1,IC50,second compound 0.0316 µM,1250 nM
same,IC50,second compound 0.1 µM,1770 nM
same,IC50,second compound 0.316 µM,1710 nM
same,IC50,second compound 1 µM,1600 nM
same,IC50,second compound 3.16 µM,1370 nM
same,IC50,second compound 10 µM,1300 nM
same,"viability, T/C",[1],99.6%
same,"viability, T/C",[2],110%
same,"viability, T/C",[3],95.6%
same,"viability, T/C",[4],54.1%
same,"viability, T/C","second compound 0.0316 µM, first compound 3.16 µM",34%
same,"viability, T/C","second compound 0.0316 µM, first compound 10 µM",28.1%
same,"viability, T/C",[5],96.4%
same,"viability, T/C",[6],102%
same,"viability, T/C",[7],84.4%
same,"viability, T/C",[8],64.4%
same,"viability, T/C","second compound 0.1 µM, first compound 3.16 µM",35.8%
same,"viability, T/C","second compound 0.1 µM, first compound 10 µM",27%
same,"viability, T/C",[9],100%
same,"viability, T/C",[10],98.8%
same,"viability, T/C",[11],93.3%
same,"viability, T/C",[12],63.9%
same,"viability, T/C","second compound 0.316 µM, first compound 3.16 µM",34%
same,"viability, T/C","second compound 0.316 µM, first compound 10 µM",23.7%
same,"viability, T/C",[13],108%
same,"viability, T/C",[14],89.3%
same,"viability, T/C",[15],93.5%
same,"viability, T/C",[16],60.5%
same,"viability, T/C","second compound 1 µM, first compound 3.16 µM",33.7%
same,"viability, T/C","second compound 1 µM, first compound 10 µM",26.1%
same,"viability, T/C",[17],86.2%
same,"viability, T/C",[18],108%
same,"viability, T/C",[19],77.2%
same,"viability, T/C",[20],55.8%
same,"viability, T/C","second compound 3.16 µM, first compound 3.16 µM",38.1%
same,"viability, T/C","second compound 3.16 µM, first compound 10 µM",27.4%
same,"viability, T/C",[21],92.1%
same,"viability, T/C",[22],92.8%
same,"viability, T/C",[23],85.5%
same,"viability, T/C",[24],54.8%
same,"viability, T/C","second compound 10 µM, first compound 3.16 µM",33%
same,"viability, T/C","second compound 10 µM, first compound 10 µM",26.7%
